Drawing on patent publication US8063220B2, “Sulfonyl-quinoline derivatives” (Richter Gedeon Nyrt., priority 2007, dated 2011), this text covers Ki for 41 compounds.

Experiment [1] addresses T1, rat mGluR5 (Rattus norvegicus, UniProt P31424).
T1 construct: Rat cerebro-cortical membrane preparation was used; from tissue; host or cells: rat cerebral cortex (membrane preparation)
The experiment can be described thus: MGluR5 receptor binding test ([3H]-M-MPEP displacement, rat cerebro-cortical membrane preparation). Conditions: rat mGluR5, [3H]-M-MPEP 2 nM; read-out: mGlu5 Ki. The method, then: Rat cerebro-cortical membrane preparation was used to determine the binding characteristics of reference compounds and novel compounds to the rat mGluR5. The A18 cell line expressing hmGluR5a (purchased from Euroscreen) was used to determine binding characteristics of the chemical compounds to the human mGluR5a receptor. [3H]-M-MPEP (2 nM) was used as radioligand. The nonspecific binding was determined in the presence of 10 μM M-MPEP.

Experiment [2] addresses T2, rat mGluR1 (Rattus norvegicus, UniProt P23385).
T2 construct: rat cerebellar membrane preparation was used; from tissue; host or cells: rat cerebellum (membrane preparation)
The experiment is described as follows: MGluR1 receptor binding test ([3H]R214127 displacement, rat cerebellar membrane preparation). Conditions: rat mGluR1, [3H]R214127 3 nM; read-out: mGlu1 Ki. The method, then: MGluR1 receptor binding tests were performed according to modified method of Lavreysen et al. (Mol. Pharm., 2003, 63, 1082). Based on the high homology between the human and rat mGluR1 receptors, rat cerebellar membrane preparation was used to determine the binding characteristics of reference compounds and novel compounds to the rat mGluR1. [3H]R214127 (3 nM) was used as radioligand and the nonspecific binding was determined in the presence of 1 μM of R214127.
IC-50 values were determined from displacement curves by nonlinear regression analysis and were converted to Ki values using the equation method of Cheng and Prusoff (Biochem. Pharmacol., 1973, 22, 3099).

T2 sequence (P23385 19-1199): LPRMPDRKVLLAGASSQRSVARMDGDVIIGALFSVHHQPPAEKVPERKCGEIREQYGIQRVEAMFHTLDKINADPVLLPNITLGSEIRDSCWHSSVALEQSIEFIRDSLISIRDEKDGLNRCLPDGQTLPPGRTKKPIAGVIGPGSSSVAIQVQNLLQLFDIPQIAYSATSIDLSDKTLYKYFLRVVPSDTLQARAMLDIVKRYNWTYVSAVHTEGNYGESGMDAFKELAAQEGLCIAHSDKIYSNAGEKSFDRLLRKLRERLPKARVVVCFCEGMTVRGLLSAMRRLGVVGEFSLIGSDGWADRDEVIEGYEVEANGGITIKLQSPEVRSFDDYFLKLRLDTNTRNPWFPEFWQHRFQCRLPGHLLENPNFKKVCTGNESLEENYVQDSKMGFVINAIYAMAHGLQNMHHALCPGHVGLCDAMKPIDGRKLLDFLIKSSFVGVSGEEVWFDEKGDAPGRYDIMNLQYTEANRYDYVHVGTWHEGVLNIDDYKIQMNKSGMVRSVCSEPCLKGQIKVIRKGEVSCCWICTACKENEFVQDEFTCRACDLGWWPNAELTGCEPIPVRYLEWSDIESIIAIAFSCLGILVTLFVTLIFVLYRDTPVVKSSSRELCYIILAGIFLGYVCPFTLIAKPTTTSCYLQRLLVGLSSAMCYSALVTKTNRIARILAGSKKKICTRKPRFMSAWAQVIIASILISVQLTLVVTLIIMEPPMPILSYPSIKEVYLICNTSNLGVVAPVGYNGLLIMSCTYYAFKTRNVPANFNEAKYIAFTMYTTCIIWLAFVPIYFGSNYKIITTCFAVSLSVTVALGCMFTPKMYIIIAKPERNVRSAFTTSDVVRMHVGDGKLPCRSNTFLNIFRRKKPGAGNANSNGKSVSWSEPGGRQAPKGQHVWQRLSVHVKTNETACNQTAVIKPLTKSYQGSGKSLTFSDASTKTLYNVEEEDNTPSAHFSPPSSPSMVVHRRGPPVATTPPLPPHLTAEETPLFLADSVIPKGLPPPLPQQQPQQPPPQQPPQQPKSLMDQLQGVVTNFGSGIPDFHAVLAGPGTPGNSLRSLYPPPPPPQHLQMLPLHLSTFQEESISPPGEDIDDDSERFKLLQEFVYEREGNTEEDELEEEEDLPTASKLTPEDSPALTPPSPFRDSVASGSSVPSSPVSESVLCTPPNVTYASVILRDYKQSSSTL
T1 sequence (P31424 21-1203): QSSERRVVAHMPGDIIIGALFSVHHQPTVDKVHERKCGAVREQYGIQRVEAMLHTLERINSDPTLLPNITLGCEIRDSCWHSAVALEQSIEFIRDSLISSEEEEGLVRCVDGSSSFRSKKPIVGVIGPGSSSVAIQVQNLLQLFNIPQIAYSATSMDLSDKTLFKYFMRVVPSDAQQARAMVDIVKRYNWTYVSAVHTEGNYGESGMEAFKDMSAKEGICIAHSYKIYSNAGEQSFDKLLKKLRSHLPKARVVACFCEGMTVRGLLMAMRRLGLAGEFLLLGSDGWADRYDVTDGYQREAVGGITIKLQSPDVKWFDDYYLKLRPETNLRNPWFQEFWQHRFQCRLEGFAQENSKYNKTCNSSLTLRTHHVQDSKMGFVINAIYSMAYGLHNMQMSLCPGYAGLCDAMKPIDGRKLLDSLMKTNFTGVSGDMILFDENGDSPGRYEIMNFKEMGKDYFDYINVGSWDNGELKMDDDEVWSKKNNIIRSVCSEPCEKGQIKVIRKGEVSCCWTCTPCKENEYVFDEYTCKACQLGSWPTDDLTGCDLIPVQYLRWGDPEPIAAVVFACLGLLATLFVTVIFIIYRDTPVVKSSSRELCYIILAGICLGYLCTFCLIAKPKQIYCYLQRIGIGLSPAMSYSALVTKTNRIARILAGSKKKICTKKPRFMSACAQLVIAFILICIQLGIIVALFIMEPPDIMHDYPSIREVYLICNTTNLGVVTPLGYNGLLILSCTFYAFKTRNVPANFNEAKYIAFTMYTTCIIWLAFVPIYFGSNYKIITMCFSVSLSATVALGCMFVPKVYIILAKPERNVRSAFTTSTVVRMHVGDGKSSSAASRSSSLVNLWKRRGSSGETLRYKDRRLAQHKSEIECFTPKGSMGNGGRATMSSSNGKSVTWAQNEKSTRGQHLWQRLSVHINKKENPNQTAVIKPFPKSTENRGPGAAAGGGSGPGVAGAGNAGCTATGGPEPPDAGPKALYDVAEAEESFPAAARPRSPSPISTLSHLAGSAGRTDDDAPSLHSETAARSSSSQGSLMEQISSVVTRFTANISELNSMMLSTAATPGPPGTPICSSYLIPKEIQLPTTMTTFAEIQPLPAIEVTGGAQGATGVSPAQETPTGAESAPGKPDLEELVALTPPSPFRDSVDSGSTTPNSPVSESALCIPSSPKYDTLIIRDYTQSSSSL

Regarding `O=S(=O)(c1cc(F)cc(F)c1)c1cnc2c(F)cccc2c1-c1cccc(F)c1` [Compound 51], the inhibitory constant (Ki) (as a rule, the dissociation constant of the complex between target and ligand, obtained from inhibition or displacement) in experiment [1] was below 0.2 µM; in experiment [2] it was above 0.5 µM.
The like results for `COc1ccc(-c2c(S(=O)(=O)c3ccc(F)cc3)cnc3c(F)cccc23)cc1` [Compound 52] were, in that order, below 0.2 µM and above 0.5 µM.
Consider `COc1ccc(S(=O)(=O)c2cnc3c(F)cccc3c2-c2cccc(Cl)c2)cc1` [Compound 53, 4-(3-chloro-phenyl)-8-fluoro-3-(4-methoxy-benzenesulfonyl)-quinoline], for which the Ki is below 0.2 µM in experiment [1] and above 0.5 µM in experiment [2].
The like results for `COc1ccc(S(=O)(=O)c2cnc3c(F)cccc3c2-c2ccc(Cl)cc2)cc1` [Compound 54] were, in that order, below 0.2 µM and below 0.2 µM.
Turning to `COc1ccc(S(=O)(=O)c2cnc3c(F)cccc3c2-c2cccc(F)c2)cc1` [Compound 55], the values for the inhibition constant Ki in experiment [1] and in experiment [2] were below 0.2 µM and above 0.5 µM, respectively.
The like results for `COc1ccc(-c2c(S(=O)(=O)c3ccc(OC)cc3)cnc3c(F)cccc23)cc1` [Compound 56] were, in that order, below 0.2 µM and above 0.5 µM.
The matching figures for `COc1ccc(S(=O)(=O)c2cnc3c(F)cccc3c2-c2cccc(OC)c2)cc1` [Compound 57]: below 0.2 µM and above 0.5 µM.
For `O=S(=O)(c1cccc(F)c1)c1cnc2c(F)cccc2c1-c1cccc(Cl)c1` [Compound 58], the Ki in experiment [1] is below 0.2 µM; in experiment [2], 0.2 to 0.5 µM.
Turning to `O=S(=O)(c1cccc(F)c1)c1cnc2c(F)cccc2c1-c1ccc(Cl)cc1` [Compound 59], the inhibition constant (Ki) in experiment [1] is below 0.2 µM; in experiment [2] it was 0.2 to 0.5 µM.
The matching figures for `O=S(=O)(c1cccc(F)c1)c1cnc2c(F)cccc2c1-c1cccc(F)c1` [Compound 60]: below 0.2 µM and 0.2 to 0.5 µM.
The matching figures for `COc1ccc(-c2c(S(=O)(=O)c3cccc(F)c3)cnc3c(F)cccc23)cc1` [Compound 61]: below 0.2 µM and above 0.5 µM.
The matching figures for `COc1cccc(-c2c(S(=O)(=O)c3cccc(F)c3)cnc3c(F)cccc23)c1` [Compound 62]: below 0.2 µM and above 0.5 µM.
Regarding `O=S(=O)(c1cccc(F)c1)c1cnc2c(F)cccc2c1-c1ccc(F)cc1` [Compound 63], the Ki in experiment [1] is below 0.2 µM; in experiment [2], 0.2 to 0.5 µM.
The matching figures for `O=S(=O)(c1cc(F)cc(F)c1)c1cnc2ccc(F)cc2c1-c1cccc(Cl)c1` [Compound 64]: above 0.5 µM and above 0.5 µM.
With `O=S(=O)(c1cc(F)cc(F)c1)c1cnc2ccc(F)cc2c1-c1cccc(F)c1` [Compound 65], the inhibitory constant (Ki) in experiment [1] and in experiment [2] was 0.2 to 0.5 µM each time.
Turning to `O=S(=O)(c1cc(F)cc(F)c1)c1cnc2ccc(F)cc2c1-c1ccc(F)cc1` [Compound 66], the Ki is 0.2 to 0.5 µM in experiment [1] and above 0.5 µM in experiment [2].
The like results for `N#Cc1cccc(S(=O)(=O)c2cnc3ccc(F)cc3c2-c2cccc(F)c2)c1` [Compound 67] were, in that order, below 0.2 µM and 0.2 to 0.5 µM.
The matching figures for `COc1cccc(-c2c(S(=O)(=O)c3cccc(C#N)c3)cnc3ccc(F)cc23)c1` [Compound 68, 3-(3-cyano-benzenesulfonyl)-6-fluoro-4-(3-methoxy-phenyl)-quinoline]: below 0.2 µM and above 0.5 µM.
The matching figures for `N#Cc1cccc(S(=O)(=O)c2cnc3ccc(F)cc3c2-c2ccc(F)cc2)c1` [Compound 69]: below 0.2 µM and 0.2 to 0.5 µM.
In the case of `COc1ccc(S(=O)(=O)c2cnc3ccc(F)cc3c2-c2cccc(Cl)c2)cc1OC` [Compound 70], the Ki in experiment [1] and in experiment [2] was above 0.5 µM throughout.
On to `COc1ccc(-c2c(S(=O)(=O)c3ccc(OC)c(OC)c3)cnc3ccc(F)cc23)cc1` [Compound 71], for which the Ki in experiment [1] and in experiment [2] was above 0.5 µM each time.
For `COc1cccc(S(=O)(=O)c2cnc3ccc(F)cc3c2-c2cccc(Cl)c2)c1` [Compound 72], the Ki is below 0.2 µM in experiment [1] and above 0.5 µM in experiment [2].
The matching figures for `COc1cccc(S(=O)(=O)c2cnc3ccc(F)cc3c2-c2ccc(F)cc2)c1` [Compound 73]: below 0.2 µM and above 0.5 µM.
The like results for `COc1ccc(-c2c(S(=O)(=O)c3ccc(OC)c(Cl)c3)cnc3ccc(F)cc23)cc1` [Compound 74] were, in that order, below 0.2 µM and above 0.5 µM.
For `COc1cccc(-c2c(S(=O)(=O)c3ccc(OC)c(Cl)c3)cnc3ccc(F)cc23)c1` [Compound 75], the Ki in experiment [1] was below 0.2 µM; in experiment [2], above 0.5 µM.
The matching figures for `O=S(=O)(c1ccc(F)cc1)c1cnc2cc(F)ccc2c1-c1ccc(Cl)cc1` [Compound 76]: below 0.2 µM and above 0.5 µM.
Regarding `COc1ccc(-c2c(S(=O)(=O)c3ccc(C)c(C)c3)cnc3cc(F)ccc23)cc1` [Compound 77], the inhibitory constant (Ki) in experiment [1] is below 0.2 µM; in experiment [2], above 0.5 µM.
The like results for `COc1ccc(S(=O)(=O)c2cnc3ccc(F)cc3c2-c2ccc(Cl)cc2)cc1Cl` [Compound 78] were, in that order, below 0.2 µM and above 0.5 µM.
For the compound `COc1ccc(S(=O)(=O)c2cnc3ccc(F)cc3c2-c2cccc(F)c2)cc1Cl` [Compound 79], the figures for the Ki in experiment [1] and in experiment [2] were below 0.2 µM and above 0.5 µM, respectively.
The like results for `O=S(=O)(c1cc(Cl)cc(Cl)c1)c1cnc2cc(F)ccc2c1-c1cccc(F)c1` [Compound 80] were, in that order, below 0.2 µM and 0.2 to 0.5 µM.
The like results for `COc1ccc(-c2c(S(=O)(=O)c3cc(Cl)cc(Cl)c3)cnc3cc(F)ccc23)cc1` [Compound 81] were, in that order, below 0.2 µM and above 0.5 µM.
The like results for `COc1cccc(-c2c(S(=O)(=O)c3cc(Cl)cc(Cl)c3)cnc3cc(F)ccc23)c1` [Compound 82] were, in that order, below 0.2 µM and above 0.5 µM.
In the case of `Cc1ccc(S(=O)(=O)c2cnc3cc(F)ccc3c2-c2cccc(Cl)c2)cc1F` [Compound 84], the Ki in experiment [1] was below 0.2 µM; in experiment [2] it was above 0.5 µM.
Take `Cc1ccc(S(=O)(=O)c2cnc3cc(F)ccc3c2-c2cccc(F)c2)cc1F` [Compound 85]: the Ki was below 0.2 µM in experiment [1] and above 0.5 µM in experiment [2].
The like results for `Cc1ccc(S(=O)(=O)c2cnc3cc(F)ccc3c2-c2ccc(F)cc2)cc1F` [Compound 86] were, in that order, below 0.2 µM and above 0.5 µM.
The matching figures for `O=S(=O)(c1cc(F)cc(F)c1)c1cnc2cc(F)ccc2c1-c1cccc(Cl)c1` [Compound 87]: 0.2 to 0.5 µM and above 0.5 µM.
Take `O=S(=O)(c1cc(F)cc(F)c1)c1cnc2cc(F)ccc2c1-c1cccc(F)c1` [Compound 88]: the inhibitory constant (Ki) in experiment [1] is below 0.2 µM; in experiment [2] it was 0.2 to 0.5 µM.
The like results for `COc1ccc(-c2c(S(=O)(=O)c3cc(F)cc(F)c3)cnc3cc(F)ccc23)cc1` [Compound 89] were, in that order, below 0.2 µM and above 0.5 µM.
`COc1cccc(-c2c(S(=O)(=O)c3cc(F)cc(F)c3)cnc3cc(F)ccc23)c1` [Compound 90]: the inhibition constant Ki in experiment [1] is below 0.2 µM; in experiment [2] it was above 0.5 µM.
The matching figures for `N#Cc1cccc(S(=O)(=O)c2cnc3cc(F)ccc3c2-c2cccc(Cl)c2)c1` [Compound 91]: below 0.2 µM and below 0.2 µM.
The like results for `COc1ccc(-c2c(S(=O)(=O)c3cccc(C#N)c3)cnc3cc(F)ccc23)cc1` [Compound 92] were, in that order, below 0.2 µM and 0.2 to 0.5 µM.
